Test results from patent US20250262201A1, “COMPOUNDS AND METHODS USEFUL FOR STABILIZING PHENYLALANINE HYDROXYLASE MUTATIONS” (Agios Pharmaceuticals, Inc., priority 2022, published 2025).

Target: T1, human PAH with the R408W mutation (Homo sapiens, UniProt P00439, R408W)
T1 construct: expressed in transfected cells
T1 sequence (P00439 1-452 R408W): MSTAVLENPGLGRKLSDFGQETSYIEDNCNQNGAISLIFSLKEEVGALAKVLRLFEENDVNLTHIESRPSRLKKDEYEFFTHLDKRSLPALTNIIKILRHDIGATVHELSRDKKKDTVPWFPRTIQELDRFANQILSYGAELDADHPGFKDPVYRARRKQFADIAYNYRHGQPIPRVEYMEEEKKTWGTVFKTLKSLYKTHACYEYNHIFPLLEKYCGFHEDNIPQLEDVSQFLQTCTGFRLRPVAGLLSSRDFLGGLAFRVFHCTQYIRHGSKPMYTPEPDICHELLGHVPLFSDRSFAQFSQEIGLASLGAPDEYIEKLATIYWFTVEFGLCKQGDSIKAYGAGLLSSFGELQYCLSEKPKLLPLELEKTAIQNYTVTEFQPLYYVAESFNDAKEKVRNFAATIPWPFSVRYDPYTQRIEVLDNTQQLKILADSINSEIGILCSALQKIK
Test: Cell Based Phenylalanine Flux Assay
Design: scale not given here
Conditions: A375 R408W cells, 24 hrs with compound, then 20 μM sepiapterin and 800 μM 13C9,15N-Phenylalanine for 4 hours; 13C-Tyrosine by LC-MS; average where tested multiple times

AC50	SMILES
E, E	O=C(c1oc(-c2cnccn2)nc1C(F)F)N1CCc2[nH]cnc2C1c1ncc2ccccc2n1 (centres unmarked)
E, E	CC1CN(C(=O)c2oc(C(C)(C)O)nc2C(F)(F)F)C(c2cc3ccccc3cn2)c2nc[nH]c21 [(4S, 7S) diastereomer of (2-(2-hydroxypropan-2-yl)-4-(triflu]
E, E	CC(C)(O)c1nc(C(F)(F)F)c(C(=O)N2CCc3[nH]cnc3C2c2ccc3ccccc3n2)o1 (centres unmarked)

Same assay, conditions: A375 R408W cells, 24 hrs with compound, then 20 μM sepiapterin and 800 μM 13C9,15N-Phenylalanine for 4 hours; 13C-Tyrosine by LC-MS; average where tested multiple times; read-out: AC50

SMILES	AC50
Cc1ncoc1CC(=O)N1CCc2[nH]cnc2C1c1cn2ccccc2n1 (centres unmarked)	> 5 µM
Cn1cc(-c2ncc(C(=O)N3CCc4[nH]cnc4C3c3ncc4ccccc4n3)o2)cn1 (centres unmarked)	> 5 µM
O=C(c1oc(-c2ccccn2)nc1C1CC1)N1CCCc2[nH]cnc2C1c1ccc2ccccc2n1 (centres unmarked)	1 to 5 µM
CC(C)(O)c1ncc(C(=O)N2CCc3[nH]cnc3C2c2ccc3ccccc3n2)s1 (centres unmarked)	1 to 5 µM
CN1CCN(c2nnc(C(=O)N3CCc4[nH]cnc4C3c3ncc4ccccc4n3)o2)CC1 (centres unmarked)	1 to 5 µM
CC(C)(O)c1nc(C(F)(F)F)c(C(=O)N2CCc3[nH]cnc3C2c2cn3ccccc3n2)o1 (centres unmarked)	1 to 5 µM
O=C(c1ncn2ccccc12)N1CCc2[nH]cnc2C1c1ccc2ccccc2n1 (centres unmarked)	1 to 5 µM
Cc1nc(C2CCN2)oc1C(=O)N1CCc2[nH]cnc2C1c1ccc2ccccc2n1 (centres unmarked)	> 5 µM
Cc1nc(-c2ccccn2)oc1C(=O)N1CCc2[nH]cnc2C1c1cn2ccccc2n1 (centres unmarked)	> 5 µM
N#Cc1ncoc1C(=O)N1CCc2[nH]cnc2C1c1cn2ccccc2n1 (centres unmarked)	1 to 5 µM

Second part, the compound after the results:

AC50	SMILES
> 5 µM	O=C(c1oc(-c2ccccn2)nc1C(F)F)N1CCc2[nH]cnc2C1c1cc2ccccc2nn1 (centres unmarked)
1 to 5 µM	O=C(c1nnc(-c2cn[nH]c2)o1)N1CCc2[nH]cnc2C1c1ccc2ccccc2n1 (centres unmarked)
> 5 µM	O=C(c1ocnc1C1CC1)N1CCCc2[nH]cnc2C1c1cc2ccccc2cn1 (centres unmarked)
> 5 µM	C[C@H]1CN(c2nnc(-c3ccccn3)o2)[C@@H](c2cc3ccccc3cn2)c2nc[nH]c21 (single isomer, unassigned)
> 5 µM	Cc1nnc(C(=O)N2CCc3[nH]cnc3C2c2cc3ccccc3nn2)o1 (centres unmarked)
> 5 µM	O=C(c1nnc(-c2ccc(C(F)(F)F)cn2)o1)N1CCc2[nH]cnc2C1c1ccc2ccccc2n1 (centres unmarked)

Same assay, conditions: A375 cells expressing human R408W PAH; 24 hrs compound incubation; 13C-Tyrosine by LC-MS; average where tested multiple times; read-out: AC50

SMILES	AC50
Cn1nc(C(F)F)nc1C(=O)N1CCc2[nH]cnc2[C@H]1c1ncc2ccccc2n1 [Example 276, (S)-(3-(difluoromethyl)-1-methyl-1H-1,2,4-triazol-5-yl)(4-(quinazolin-2-yl)-6,7-dihydro-1H-imidazo[4,5-c]pyridin-5(4H)-yl)methanone]	< 0.5 µM
O=C(c1cncs1)N1CCc2[nH]cnc2[C@H]1c1ccc2ccccc2c1 [Example 221, (R)-(4-(naphthalen-2-yl)-6,7-dihydro-1H-imidazo[4,5-c]pyridin-5(4H)-yl)(thiazol-5-yl)methanone]	1 to 5 µM
Cc1nc(C2(O)CCC2)oc1C(=O)N1CCc2[nH]cnc2C1c1ccc2ccccc2n1 (stereo in doubt) [Example 102, (S)-(2-(1-hydroxycyclobutyl)-4-methyloxazol-5-yl)(4-(quinolin-2-yl)-6,7-dihydro-1H-imidazo[4,5-c]pyridin-5(4H)-yl)methanone]	> 5 µM
N#Cc1ncoc1C(=O)N1CCc2[nH]cnc2C1c1ccc2ccccc2n1 (stereo in doubt) [Example 58, (S)-5-(4-(quinolin-2-yl)-4,5,6,7-tetrahydro-1H-imidazo[4,5-c]pyridine-5-carbonyl)oxazole-4-carbonitrile]	1 to 5 µM
O=C(c1oc(C2CC(F)(F)C2)nc1C(F)F)N1CCc2[nH]cnc2C1c1ccc2ccccc2n1 (stereo in doubt) [Example 72, (S)-(2-(3,3-difluorocyclobutyl)-4-(difluoromethyl)oxazol-5-yl)(4-(quinolin-2-yl)-6,7-dihydro-1H-imidazo[4,5-c]pyridin-5(4H)-yl)methanone]	1 to 5 µM
COCc1ccc2c(C(=O)N3CCc4[nH]cnc4[C@H]3c3ncc4ccccc4n3)cnn2c1 [Example 153]	0.5 to 1 µM
CC(C)(F)c1ncc(C(=O)N2CCc3[nH]cnc3[C@@H]2c2cn3ccccc3n2)s1 [Example 247, (S)-(2-(2-fluoropropan-2-yl)thiazol-5-yl)(4-(imidazo[1,2-a]pyridin-2-yl)-6,7-dihydro-1H-imidazo[4,5-c]pyridin-5(4H)-yl)methanone]	> 5 µM
CN1CCN(c2cn3ncc(C(=O)N4CCc5[nH]cnc5[C@H]4c4cc5ccccc5cn4)c3cc2Cl)CC1 [Example 464, (R)-(5-chloro-6-(4-methylpiperazin-1-yl)pyrazolo[1,5-a]pyridin-3-yl)(4-(isoquinolin-3-yl)-6,7-dihydro-1H-imidazo[4,5-c]pyridin-5(4H)-yl)methanone]	< 0.5 µM
COCc1ccc2c(C(=O)N3CCc4[nH]cnc4[C@@H]3c3ncc4ccccc4n3)cnn2c1 [Example 154, (R)-(6-(methoxymethyl)pyrazolo[1,5-a]pyridin-3-yl)(4-(quinazolin-2-yl)-6,7-dihydro-1H-imidazo[4,5-c]pyridin-5(4H)-yl)methanone]	> 5 µM
O=C(CC1CC(F)C1)N1CCc2[nH]cnc2C1c1ccc2ccccc2n1 (stereo in doubt) [Example 53, (R)-2-(3-fluorocyclobutyl)-1-(4-(quinolin-2-yl)-6,7-dihydro-1H-imidazo[4,5-c]pyridin-5(4H)-yl)ethanone]	< 0.5 µM
O=C(c1oc(N2CCC(F)CC2)nc1C(F)F)N1CCc2[nH]cnc2[C@H]1c1ncc2ccccc2n1 [Example 280, (S)-(4-(difluoromethyl)-2-(4-fluoropiperidin-1-yl)oxazol-5-yl)(4-(quinazolin-2-yl)-6,7-dihydro-1H-imidazo[4,5-c]pyridin-5(4H)-yl)methanone]	< 0.5 µM
CC(C)(F)c1ncc(C(=O)N2CCc3[nH]cnc3[C@H]2c2cn3ccccc3n2)s1 [Example 248, (R)-(2-(2-fluoropropan-2-yl)thiazol-5-yl)(4-(imidazo[1,2-a]pyridin-2-yl)-6,7-dihydro-1H-imidazo[4,5-c]pyridin-5(4H)-yl)methanone]	0.5 to 1 µM

Next, values leading:

AC50	SMILES
< 0.5 µM	Cc1ncoc1C(=O)N1CCc2[nH]cnc2[C@H]1c1cc2ccccc2nn1 [Example 211, (S)-(4-(cinnolin-3-yl)-6,7-dihydro-1H-imidazo[4,5-c]pyridin-5(4H)-yl)(4-methyloxazol-5-yl)methanone]
0.5 to 1 µM	Cn1cc(-c2nnc(C(=O)N3CCc4[nH]cnc4[C@H]3c3ncc4ccccc4n3)o2)cn1 [Example 143, (S)-(5-(1-methyl-1H-pyrazol-4-yl)-1,3,4-oxadiazol-2-yl)(4-(quinazolin-2-yl)-6,7-dihydro-1H-imidazo[4,5-c]pyridin-5(4H)-yl)methanone]
0.5 to 1 µM	c1ccc(-c2nnc(N3CCc4[nH]cnc4[C@H]3c3cc4ccccc4cn3)o2)nc1 [Example 365, (R)-2-(4-(isoquinolin-3-yl)-6,7-dihydro-1H-imidazo[4,5-c]pyridin-5(4H)-yl)-5-(pyridin-2-yl)-1,3,4-oxadiazole]
< 0.5 µM	Cn1ccc(-c2nnc(C(=O)N3CCc4[nH]cnc4C3c3ccc4ccccc4n3)o2)n1 (stereo in doubt) [Example 85, (R)-(5-(1-methyl-1H-pyrazol-3-yl)-1,3,4-oxadiazol-2-yl)(4-(quinolin-2-yl)-6,7-dihydro-1H-imidazo[4,5-c]pyridin-5(4H)-yl)methanone]
0.5 to 1 µM	O=C(c1nnc(-c2ccc(F)c(F)c2)o1)N1CCc2[nH]cnc2C1c1ccc2ccccc2n1 (stereo in doubt) [Example 69, (R)-(5-(3,4-difluorophenyl)-1,3,4-oxadiazol-2-yl)(4-(quinolin-2-yl)-6,7-dihydro-1H-imidazo[4,5-c]pyridin-5(4H)-yl)methanone]
< 0.5 µM	O=C(c1cnn2cc(-c3ncccc3F)ccc12)N1CCc2[nH]cnc2[C@H]1c1cc2ccccc2cn1 [Example 482, (R)-(6-(3-fluoropyridin-2-yl)pyrazolo[1,5-a]pyridin-3-yl)(4-(isoquinolin-3-yl)-6,7-dihydro-1H-imidazo[4,5-c]pyridin-5(4H)-yl)methanone]
< 0.5 µM	O=C(c1nnc(-c2cnccn2)o1)N1CCc2[nH]cnc2[C@H]1c1cc2ccccc2cn1 [Example 469, (R)-(4-(isoquinolin-3-yl)-6,7-dihydro-1H-imidazo[4,5-c]pyridin-5(4H)-yl)(5-(pyrazin-2-yl)-1,3,4-oxadiazol-2-yl)methanone]
> 5 µM	O=C(c1nnc(-c2ccc(F)cc2)o1)N1CCc2[nH]cnc2[C@@H]1c1ccc2ccccc2n1 [Example 12]
> 5 µM	CN(C)c1nnc(C(=O)N2CCc3[nH]cnc3[C@@H]2c2cc3ccccc3cn2)o1 [Example 367, (S)-(5-(dimethylamino)-1,3,4-oxadiazol-2-yl)(4-(isoquinolin-3-yl)-6,7-dihydro-1H-imidazo[4,5-c]pyridin-5(4H)-yl)methanone]
< 0.5 µM	O=C(c1cnn2cc(C3CC3)ccc12)N1CCc2[nH]cnc2[C@H]1c1cc2ccccc2cn1 [Example 452, (R)-(6-cyclopropylpyrazolo[1,5-a]pyridin-3-yl)(4-(isoquinolin-3-yl)-6,7-dihydro-1H-imidazo[4,5-c]pyridin-5(4H)-yl)methanone]
